target: Mouse Brain GABA Receptors; test: In vitro assay of binding to mouse brain GABA receptors (3H-EBOB displacement, mouse brain membranes); conditions: displacement of 5.2 nM 3H-EBOB, about 45 min at about 24° C.
Description: Mouse brains were obtained from carbon dioxide-asphyxiated Swiss-Webster mice, washed with phosphate-buffered saline, and used either fresh or after storage at −80° C. for up to 10 months. Unless specified, all preparation steps were performed at 0-4° C. For each preparation, 20 brains were suspended in about 40 mL of 0.32 M sucrose and homogenized for about 2 minutes, using a Tissumizer™ homogenizer equipped with a SDT-100EN probe (available from Tekmar-Dohrmann, Cincinnati, Ohio) running at 50% of its maximum speed. The extract was centrifuged for about 5 min at about 1000×g to pellet intact brain tissue. The supernatant was retained and the pellet washed with an additional 40 mL of 0.32 M sucrose and centrifuged at 1000×g for about 5 minutes. The 1000×g supernatants were combined and centrifuged at about 10,000×g for about 20 min to pellet membranes. The 10,000×g supernatant was discarded and the pellet was resuspended in about 20 mL of water containing 1 mM EDTA. The sample was dialyzed two times for about 3 hours each against about 3 L of water. The sample was then centrifuged at about 25,000×g for about 30 min to pellet the membranes. After centrifugation, the supernatant was discarded and the wet pellet recovered. The protein concentration of the pellet was determined by the Bio-Rad Protein Assay (available from Bio-Rad Laboratories, Hercules, Calif.) using bovine serum albumin as a standard. The membranes were aliquoted and stored at −80° C. for up to 6 months before use.
Mouse brain membranes were prepared as described above from dissected mouse brains. Test compounds were dissolved in dimethylsulfoxide (DMSO) at concentrations ranging from about 2 nM to about 100 mM. About 1 μL of a dissolved test compound was dispensed into a well of a 96-well polystyrene plate. About 100 μL of ice cold assay buffer (10 mM phosphate, 300 mM NaCl, pH 7.5) containing 5.2 nM 4′-Ethynyl-4-n-[2,3-^3H2]propylbicycloorthobenzoate (^3H-EBOB, 38 Ci/mmol, available from NEN Life Science Products, Boston, Mass.) was added to the well, followed by about 100 μL of ice cold assay buffer containing about 0.25-0.5 mg/mL mouse brain membranes. Control wells were prepared the same way except that the mouse brain membranes were omitted from the “negative” wells, and the test compounds were omitted from the “positive” wells. The samples were incubated for about 45 min at about 24° C. and then filtered on a 0.1% (w/v) polyethylenimine-soaked glass fiber Filtermat A (available from EG&G Wallac Inc., Gaithersburg, Md.) followed by four 100 mL rinses of cold assay buffer using a Harvester 96® cell harvester (available from Tomtec, Orange, Conn.). The filtermat was air dried and radioactivity bound to the filtermat was detected with either a 1450 MicroBeta® Trilux scintillation counter (available from EG&G Wallac Inc.) or a Topcount NXT™ scintillation counter (available from Packard Instrument Co., Meriden, Conn.) using standard methods.
Specific binding was considered to be the difference between total ^3H bound to the mouse brain membranes in the absence of any inhibitors and nonspecific ^3H bound to the mouse brain membranes upon the addition of 5 μM unlabeled EBOB. The average radioactivity contained in the “negative” wells was subtracted from each of the assay wells. […] Compounds that displaced ^3H-EBOB specifically bound to the mouse brain membranes were tested at 24-48 different final concentrations, varying from about 1 nM to about 125 μM, in order to determine the concentration at which 50% of the maximum inhibition due to the addition of that compound was observed (IC50). […]

Row | IC50 [nM] | SMILES
1 | 730 | O=S(=O)(Oc1c2c(nn1-c1c(Cl)cc(C(F)(F)F)cc1Cl)CSC2)c1ccccc1 [Compound 6, 2-[2,6-Dichloro-4-(trifluoromethyl)phenyl]-4,6-dihydrothieno-[3,4-c]pyrazole-3-yl benzenesulfonate]
2 | 1000 | FC(F)(F)c1cc(Cl)c(-n2cc3c(n2)CC=C3)c(Cl)c1 [Compound 63, 2-[2,6-Dichloro-4-(trifluoromethyl)phenyl]-6-hydrocyclopenta[1,2-c]pyrazole]
3 | 25000 | O=S(=O)(C1CCc2nn(-c3c(Cl)cc(C(F)(F)F)cc3Cl)cc21)C(F)(F)F (stereo not shown) [Compound 67]
4 | 1000 | CSC1CCc2nn(-c3c(Cl)cc(C(F)(F)F)cc3Cl)cc21 (stereo not shown) [Compound 68, 2-[2,6-Dichloro-4-(trifluoromethyl)phenyl]-4-methylthio-2,4,5,6-tetrahydrocyclopenta[c]pyrazole]
